A short description of series [1]: Toxicity to normal cells (SRB). The conditions noted are these: human, Hs27 fibroblasts (normal cell line). The series is classed as cell-based, human. Put shortly: (§1)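 GI50 values come from growth equations comparing treated, untreated and medium-only wells. Fibroblasts (Hs27, Balb/c3t3) got 72 h compound exposure with SRB read-out at 540 nm after TCA fixing. MDA-MB-231 got 120 h with MTS at 490 nm, across 10 μM˜0.1 nM.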

The subject of series [2] is MDA-MB-231 breast cancer cell lines. The experiment in a line: Evaluation of inhibition on cell growth (MTS). The format is cell-based. The settings on record: Homo sapiens, MDA-MB-231, 120 hours. Put shortly: as §1
Series [3] can be described thus: Toxicity to normal cells (SRB). The format is cell-based, mouse. The conditions noted are these: mouse, Balb/c3t3 fibroblasts (normal cell line), read-out: BalB/C (GI50). As to the method:
MDA-MB-231 breast cancer cell lines (ATCC #HTB-26) and BxPC-3 pancreas cancer cell lines (ATCC #CRL 1687), which have been reported to express XIAP, were obtained from ATCC (American type culture collection; Rockville, Md.). MDA-MB-231 cell lines were incubated in L-15 medium supplemented with 10% FBS and 1% penicillin/streptomycin (Gibco BRL) at a T-75 cm^2 growth flask. In addition, BxPC-3 cell lines were incubated in RPMI medium supplemented with 10% FBS and 1% penicillin/streptomycin. For experiments of toxicity to normal cells, fibroblasts Hs27 (ATCC #CRL 1634) and Balb/c3t3 (ATCC #CCL 163) were used. The various cell lines were transferred into 96-well plates at a density of 3,000˜5,000 cells/100 μL, and cultured for 24 hours under conditions of 37° C., 5% CO2, 95% air, and 100% relative humidity (MDA-MB-231 cells were cultured under atmospheric conditions). The cells were treated with 10 μM˜0.1 nM of test compounds, and MDA-MB-231, BxPC-3, and normal cell lines were cultured for 120, 96, and 72 hours, respectively.
Cell viabilities of MDA-MB-231 cell lines were measured at an absorbance of 490 nm using CellTiter 96™ AQueous One Solution Cell proliferation Assay (MTS, Promega), and cell viabilities of BxPC-3 and normal cell lines were measured by fixing cells with 10% TCA (trichloroacetic acid), staining with SRB (sulforhodamine B), and measuring at 540 nm. From the values, GI50 values in which test compounds reduce the growth of cancer cells by 50% were calculated. The growth rates of cancer cells were calculated from following Equation 1 or 2. [(Ti−Tz)/(C−Tz)]×100 (for Ti>=Tz) [Equation 1] [(Ti−Tz)/Tz]×100 (for Ti<Tz) [Equation 2] In Equations 1 and 2, Tz refers to a density of untreated cells, which is an absorbance in 0% cell growth groups. C refers to a density of cells cultured by adding only medium, and Ti refers to a density of cells treated with test compounds.
GI50 value is the concentration of a test compound when the value of Equation 1 is 50, which indicates the concentration of test compound required to inhibit the cancer cells by 50%. On each measurement, test compounds were compared with a control.
The activity value of each compound (GI50 value) was shown in Table 5, and an IAP antagonist was used as a control.
In the activity measurement on MDA-MB-231 breast cancer cell lines, the values were represented as “***” for 100 nM or less, “**” for over 100 nM to below 1,000 nM, and “*” for 1,000 nM or more. In the measurement on normal cell lines, Balb/C and Hs27, the values were represented as “+++” for 10,000 nM or more, “++” for over 5,000 nM to below 10,000 nM, and “+” for 5,000 nM or less.

Where a name gives a salt, the structure may show the parent alone. Read-outs that look alike come from different tables or passages of the source.

In the case of `CN[C@@H](C)C(=O)N[C@H](C(=O)N1CCC[C@H]1C(=O)Nc1cc2c(NC3CCCCC3)ncnc2cc1OC)C(C)(C)C` [Example 38, (S)—N-(4-(cyclohexylamino)-7-methoxyquinazolin-6-yl)-1-((S)-3,3-dimethyl-2-((S)-2-(methylamino)propanamido)butanoyl)pyrrolidine-2-carboxamide hydrochloride], the GI50 at 72 h in series [1] and in series [3] was more than 10 µM throughout. Further, the GI50 in series [2] is not above 100 nM.

As for `CN[C@@H](C)C(=O)N[C@H](C(=O)N1CCC[C@H]1C(=O)Nc1cc2c(Nc3ccc(-c4ccccc4)cc3)ncnc2cc1OC)C(C)(C)C` [Example 39, (S)—N-(4-(biphenyl-4-ylamino)-7-methoxyquinazolin-6-yl)-1-((S)-3,3-dimethyl-2-((S)-2-(methylamino)propanamido)butanoyl)pyrrolidine-2-carboxamide hydrochloride], the GI50 at 72 h in series [1] and in series [3] was more than 10 µM in each case. The same compound gave a GI50 in series [2] not above 100 nM.

`CN[C@@H](C)C(=O)N[C@H](C(=O)N1CCC[C@H]1C(=O)Nc1cc2c(Nc3ccc(Oc4ccccc4)cc3)ncnc2cc1OC)C(C)(C)C` [Example 40, (S)-1-((S)-3,3-dimethyl-2-((S)-2-(methylamino)propanamido)butanoyl)-N-(7-methoxy-4-(4-phenoxyphenylamino)quinazolin-6-yl)pyrrolidine-2-carboxamide hydrochloride]: the GI50 at 72 h in series [1] and in series [3] was more than 10 µM throughout. The compound also gave a GI50 in series [2] not above 100 nM.

As for `CN[C@@H](C)C(=O)N[C@H](C(=O)N1CCC[C@H]1C(=O)Nc1cc2c(Nc3ccc(F)c(Cl)c3)ncnc2cc1OC)C(C)(C)C` [Example 41, (S)—N-(4-(3-chloro-4-fluorophenylamino)-7-methoxyquinazolin-6-yl)-1-((S)-3,3-dimethyl-2-((S)-2-(methylamino)propanamido)butanoyl)pyrrolidine-2-carboxamide hydrochloride], the GI50 at 72 h in series [1] and in series [3] was more than 10 µM throughout. This compound yielded a GI50 in series [2] not above 100 nM.

Regarding `CN[C@@H](C)C(=O)N[C@H](C(=O)N1CCC[C@H]1C(=O)Nc1cc2c(Nc3cccc(F)c3F)ncnc2cc1OC)C(C)(C)C` [Example 42, (S)—N-(4-(2,3-difluorophenylamino)-7-methoxyquinazolin-6-yl)-1-((S)-3,3-dimethyl-2-((S)-2-(methylamino)propanamido)butanoyl)pyrrolidine-2-carboxamide hydrochloride], the GI50 at 72 h in series [1] and in series [3] was more than 10 µM throughout. Moreover, the GI50 in series [2] was not above 100 nM.

As for `CN[C@@H](C)C(=O)N[C@H](C(=O)N1CCC[C@H]1C(=O)Nc1cc2c(Nc3ccc(F)c(Cl)c3F)ncnc2cc1O)C(C)(C)C` [Example 43, (S)—N-(4-(3-chloro-2,4-difluorophenylamino)-7-hydroxyquinazolin-6-yl)-1-((S)-3,3-dimethyl-2-((S)-2-(methylamino)propanamido)butanoyl)pyrrolidine-2-carboxamide], the GI50 at 72 h in series [1] and in series [3] was more than 10 µM each time. The compound further gave a GI50 in series [2] not above 100 nM.

For `C#CCO[C@H](C)[C@H](NC(=O)[C@H](C)NC)C(=O)N1CCC[C@H]1C(=O)Nc1cc2c(Nc3ccc(F)c(Cl)c3F)ncnc2cc1OC` [Example 45, (S)—N-(4-(3-chloro-2,4-difluorophenylamino)-7-methoxyquinazolin-6-yl)-1-((2S,3R)-2-((S)-2-(methylamino)propanamido)-3-(prop-2-ynyloxy)butanoyl)pyrrolidine-2-carboxamide hydrochloride], the GI50 at 72 h in series [1] and in series [3] was more than 10 µM throughout. In addition, the GI50 in series [2] is not above 100 nM.

For the origin of these results see patent US8835458B2 (Hanmi Science Co., Ltd, priority 2010, dated 2014).
